{"source": "paper PMC3724117", "about": "(British Journal of Pharmacology, 2013)", "key": {"[1]": {"system": "intracellular Ca^2+ stores", "test": "Ca2+ content of the intracellular stores of human ASMC", "assay_type": "cell-based", "settings": "2-APB, stores assessed with ionomycin 1 μM"}, "[2]": {"system": "histamine-evoked Ca^2+ signals", "assay_type": "cell-based, human", "settings": "for IC50: Homo sapiens"}, "[3]": {"biological_target": "EP2 receptors (Homo sapiens, UniProt P43116)", "sequence (P43116 whole entry)": "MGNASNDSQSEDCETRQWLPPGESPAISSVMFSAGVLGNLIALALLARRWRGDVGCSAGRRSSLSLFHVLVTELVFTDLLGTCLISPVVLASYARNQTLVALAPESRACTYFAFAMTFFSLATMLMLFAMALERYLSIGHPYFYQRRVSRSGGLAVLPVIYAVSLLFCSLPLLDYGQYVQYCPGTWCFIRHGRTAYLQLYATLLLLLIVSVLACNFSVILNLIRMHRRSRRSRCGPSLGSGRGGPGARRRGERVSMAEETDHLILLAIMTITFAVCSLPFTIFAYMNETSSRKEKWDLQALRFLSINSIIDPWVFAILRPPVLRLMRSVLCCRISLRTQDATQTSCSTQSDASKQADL", "assay_type": "cell-based"}, "[4]": {"biological_target": "EP2 receptor", "settings": "2000, cited from earlier work; for pKD, EP2 receptor: reported affinity, ref Abramovitz et al."}, "[5]": {"system": "AC activity", "test": "cAMP accumulation in human ASMC, HitHunter cAMP HS+ assay", "assay_type": "cell-based"}, "[6]": {"biological_target": "EP4 receptors (Homo sapiens, UniProt P35408)", "sequence (P35408 whole entry)": "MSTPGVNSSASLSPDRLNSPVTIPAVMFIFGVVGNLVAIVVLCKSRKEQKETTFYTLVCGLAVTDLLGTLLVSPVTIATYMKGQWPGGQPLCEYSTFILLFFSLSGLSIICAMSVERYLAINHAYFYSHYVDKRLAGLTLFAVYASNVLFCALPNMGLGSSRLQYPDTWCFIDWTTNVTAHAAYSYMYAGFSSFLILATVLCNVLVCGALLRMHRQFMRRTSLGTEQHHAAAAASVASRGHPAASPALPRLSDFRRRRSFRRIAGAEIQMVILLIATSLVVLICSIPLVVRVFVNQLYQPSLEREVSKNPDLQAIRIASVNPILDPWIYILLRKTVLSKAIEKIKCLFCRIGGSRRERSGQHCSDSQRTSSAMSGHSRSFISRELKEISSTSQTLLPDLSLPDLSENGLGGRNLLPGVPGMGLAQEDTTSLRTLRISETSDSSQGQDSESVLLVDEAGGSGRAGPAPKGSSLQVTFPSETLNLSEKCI", "assay_type": "cell-based"}, "[7]": {"system": "EP4 receptor", "settings": "cited from earlier work"}, "[8]": {"system": "human ASMC", "test": "Direct effect of drug alone on [Ca2+]i in human ASMC", "assay_type": "cell-based"}, "[9]": {"system": "AC activity", "test": "cAMP accumulation in human ASMC, 3H-adenine-labelling assay", "assay_type": "cell-based", "settings": "read-out: pEC50 for cAMP accumulation (converted)"}, "[10]": {"settings": "read-out: [Ca2+]i, pIC50, Control (converted)"}}, "note": "Like-named read-outs stand apart in the source and are kept apart here.", "data": [{"smiles": "NCCOB(c1ccccc1)c1ccccc1", "note": "[2-APB, 2-aminoethoxydiphenyl borate]", "values": [{"measurement": "effect on Ca2+ content of the intracellular stores", "setting": "[1]", "result": "substantial loss"}, {"measurement": "effect on Ca2+ signals evoked by histamine", "setting": "[2]; 2-APB 5 min before, histamine 3 μM or 1 mM, Ca2+-free HBS", "result": "concentration-dependent inhibition"}]}, {"smiles": "CC(C)Oc1ccc2c(=O)c3cc(C(=O)O)ccc3oc2c1", "note": "[AH6809, 6-isopropoxy-9-oxoxanthene-2-carboxylic acid]", "values": [{"measurement": "Kd", "setting": "[3]", "result": 2510, "unit": "nM"}, {"measurement": "pKD, EP2 receptor", "setting": "[4]", "result": 5.9}, {"measurement": "ΔpIC50 (pIC50 control − pIC50 +antagonist) of L902,688", "setting": "[2]; AH6809 30 μM, histamine 3 μM", "result": "−0.01 ± 0.27"}, {"measurement": "ΔpIC50 (pIC50 control − pIC50 +antagonist) of PGE2", "setting": "[2]; AH6809 30 μM, histamine 3 μM", "result": "0.62 ± 0.13"}, {"measurement": "ΔpIC50 (pIC50 control − pIC50 +antagonist) of butaprost", "setting": "[2]; AH6809 30 μM, histamine 3 μM", "result": "1.12 ± 0.15"}]}, {"smiles": "O=C(O)CCCCCC[C@H]1C(=O)NC(=O)N1CCC(O)C1CCCCC1", "note": "(stereo partly drawn) [BW 245C, (4S)-(3-[(3R,S)-3-cyclohexyl-3-hydroxypropyl]-2,5-dioxo)-4-imidazolidineheptanoic acid]", "values": [{"measurement": "effect on histamine-evoked Ca2+ signals", "setting": "[2]; BW 245C 10 nM, histamine 3 μM", "result": "no effect"}]}, {"smiles": "CCCC1([C@H](O)C/C=C/[C@H]2[C@H](O)CC(=O)[C@@H]2CCCCCCC(=O)OC)CCC1", "note": "[Butaprost]", "values": [{"measurement": "EC50 for cAMP accumulation relative to PGE2 (higher)", "setting": "[5]; butaprost vs PGE2", "result": "~10", "unit": "fold"}, {"measurement": "affinity for human EP2 receptors relative to PGE2 (lower)", "setting": "[4]; ref Narumiya et al., 1999, Abramovitz et al.", "result": "~20", "unit": "fold"}, {"measurement": "pKD, EP2 receptor", "setting": "[4]", "result": 7.04}, {"measurement": "IC50", "setting": "[2]; [10]", "result": 6.03, "unit": "nM"}, {"measurement": "difference between functional pIC50 and published binding affinity (pKD)", "setting": "[2]; pIC50 8.22 vs pKD 7.04", "result": "more than 10 fold"}]}, {"smiles": "CCOc1c2c(c(OCC)c3ccccc13)C(=O)N(c1ccc(CC(=O)NS(=O)(=O)c3ccccc3)cc1)C2", "note": "[GW627368X, 2-[4-(4,9-diethoxy-3-oxo-1H-benzo[f]isoindol-2-yl)phenyl]-N-phenylsulfonylacetamide]", "values": [{"measurement": "Kd", "setting": "[6]", "result": 6.31, "unit": "nM"}, {"measurement": "ΔpIC50 (pIC50 control − pIC50 +antagonist) of L902,688", "setting": "[2]; GW627368X 1 μM, histamine 3 μM", "result": "2.20 ± 0.28"}, {"measurement": "ΔpIC50 (pIC50 control − pIC50 +antagonist) of PGE2", "setting": "[2]; GW627368X 1 μM, histamine 3 μM", "result": "0.24 ± 0.08"}, {"measurement": "ΔpIC50 (pIC50 control − pIC50 +antagonist) of butaprost", "setting": "[2]; GW627368X 1 μM, histamine 3 μM", "result": "−0.21 ± 0.14"}]}, {"smiles": "O=C1CC[C@H](/C=C/[C@@H](O)C(F)(F)c2ccccc2)N1CCCCCCc1nn[nH]n1", "note": "[L902,688, 5-[(1E,3R)-4,4-difluoro-3-hydroxy-4-phenyl-1-buten-1-yl]-1-[6-(2H-tetrazol-5R-yl)hexyl]-2-pyrrolidinone]", "values": [{"measurement": "cAMP, pEC50, Control", "setting": "[5]; HitHunter HS+ assay, 5 min", "result": "7.76 ± 0.11 (3) /M"}, {"measurement": "affinity for EP4 receptors relative to PGE2 (greater)", "setting": "[7]; ref Supporting Information Table S4", "result": "approximately twofold"}, {"measurement": "pKD, EP4 receptor", "setting": "[7]; reported affinity, ref Young et al., 2004", "result": 9.4}, {"measurement": "[Ca2+]i, pIC50, Control", "setting": "[2]; histamine 3 μM, agonist alone", "result": "9.52 ± 0.25 (3) /M"}]}, {"smiles": "CCCCC[C@H](O)/C=C/[C@H]1[C@H](O)CC(=O)[C@@H]1C/C=C\\CCCC(=O)O", "note": "[PGE2, Prostaglandin E2]", "values": [{"measurement": "effect on [Ca2+]i", "setting": "[8]; PGE2 alone (10 μM)", "result": "no effect"}, {"measurement": "IC50", "setting": "[2]; [10]", "result": 0.537, "unit": "nM"}, {"measurement": "EC50", "setting": "[9]", "result": 214, "unit": "nM"}]}, {"smiles": "CS(=O)(=O)NC(=O)CCC/C=C\\C[C@H]1C(=O)C[C@@H](O)[C@@H]1/C=C/[C@@H](O)COc1ccccc1", "note": "[Sulprostone, sulprostone]", "values": [{"measurement": "effect on histamine-evoked Ca2+ signals", "setting": "[2]; sulprostone 1 μM, histamine 3 μM", "result": "no effect"}]}, {"smiles": "COc1ccc2c(c1)CC[C@@H]1[C@@H]2CC[C@]2(C)[C@@H](NCCCCCCN3C(=O)C=CC3=O)CC[C@@H]12", "note": "[U73122, 1-[6-[[(17β)-3-methoxyestra-1,3,5(10)-trien-17-yl]amino]hexyl]-1H-pyrrole-2,5-dione]", "values": [{"measurement": "IC50", "setting": "[2]; read-out: pIC50 for inhibition of Ca2+ signals evoked by histamine (converted)", "result": 1740, "unit": "nM"}]}, {"smiles": "COc1ccc2c(c1)CC[C@@H]1[C@@H]2CC[C@]2(C)[C@@H](NCCCCCCN3C(=O)CCC3=O)CC[C@@H]12", "note": "[U73343, 1-[6-[[(17β)-3-methoxyestra-1,3,5(10)-trien-17-yl]amino]hexyl]-2,5-pyrrolidinedione]", "values": [{"measurement": "effect on Ca2+ signals evoked by histamine", "setting": "[2]; U73343 ≤10 μM, histamine 100 μM", "result": "no effect"}]}, {"smiles": "Cn1c(=O)c2c(ncn2C)n(C)c1=O", "note": "[caffeine]", "values": [{"measurement": "effect on [Ca2+]i", "setting": "[8]; caffeine 10 mM", "result": "no effect"}]}, {"smiles": "COc1ccc2c(c1)c(CC(=O)O)c(C)n2C(=O)c1ccc(Cl)cc1", "note": "[indomethacin, Indomethacin]", "values": [{"measurement": "effect on histamine-evoked Ca2+ signals", "setting": "[2]; indomethacin 10 μM, 5 min", "result": "nor indomethacin, an inhibitor of cyclooxygenases (Figure 1F), had any effect"}]}, {"smiles": "CC(C)OC(=O)CCC/C=C\\C[C@@H]1[C@@H](CC[C@@H](O)CCc2ccccc2)[C@H](O)C[C@@H]1O", "note": "[latanoprost]", "values": [{"measurement": "effect on histamine-evoked Ca2+ signals", "setting": "[2]; latanoprost 100 nM, histamine 3 μM", "result": "no effect"}]}, {"smiles": "CC(C)[C@@]1(O)[C@@H](OC(=O)c2ccc[nH]2)[C@@]2(O)[C@@]3(C)C[C@]4(O)O[C@@]5([C@H](O)[C@@H](C)CC[C@]35O)[C@@]2(O)[C@@]14C", "note": "[ryanodine, Ryanodine]", "values": [{"measurement": "effect on responses to histamine", "setting": "[2]; ryanodine 100 μM, 5 min", "result": "unaffected"}]}, {"smiles": "COc1ccc([C@H]2N[C@H](C(=O)O)Cc3c2[nH]c2ccccc32)cc1CN1CCN(c2ccccc2F)CC1", "note": "[trans-Ned-19, (1R,3S)-1-[3-[[4-(2-fluorophenyl)piperazin-1-yl]methyl]-4-methoxyphenyl]-2,3,4,9-tetrahydro-1H-pyrido[3,4-b]indole-3-carboxylic acid]", "values": [{"measurement": "effect on responses to histamine", "setting": "[2]; trans-Ned-19 1 μM, 5 min", "result": "unaffected"}]}]}
